# Assay results: patent US20090270495A1, “Inhibitors of Phosphodiesterase Types 1 To 5 Based on Dioclein, Floranol, and Analogs Thereof” (priority 2005, published 2009)
# Several values for one entry are separate records, joined by “and”; a condition that tells them apart may be missing. Identical values can stand only once. Entries after “also recorded” stand apart in the source; their conditions may differ. Like-named read-outs stand apart in the source and are kept apart here.
# Tests used:
# PDE5 [1] = target: PDE5 (Homo sapiens, UniProt O76074); settings: cited from earlier work
# human saphenous vein = test: Vasodilating effect on human saphenous vein pre-contracted with phenylephrine; settings: for IC50: phenylephrine 3×10^−6M
# Protocol: FIG. 2 represent the vasodilating effect of dioclein in the human saphenous vein, pre-contracted with phenylephrine (3×10^−6M) in the presence or absence of functional endothelium. The relaxation data represent the percentage of reduction of the contraction by phenylephrine in response to dioclein and have been expressed on average±SEM. *P<0.05 (two-way ANOVA with post-test comparison BONFERRONI. The vessels of 8 patients with and 8 without functional endothelium were analyzed.
# The data represent the percentage of reduction of the contraction by phenylephrine in response to dioclein and have been expressed average±SEM. *P<0.05. ***P<0.001 (two-way ANOVA with post-test comparison BONFERRONI). One has analyzed 8 vessels of the control group, 5 vessels of the group incubated with H-89.
# FIG. 4 illustrates the effect of Rp-8-pCPT cGMPS (10 μM) on the relaxation induced by dioclein on the human saphenous vein without functional endothelium, pre-contracted with phenylephrine (3×10^−6M). The data represent the percentage of reduction of the contraction with phenylephrine in response to dioclein and have been expressed in average±SEM. ***P<0.001 (two-way ANOVA with post-test comparison of BONFERRONI). One has analyzed 8 vessels of the control group and 5 vessels of the group incubated with Rp-8-pCPT cGMPS.
# The data represent the percentage of reduction of the contraction with phenylephrine in response to dioclein and have been expressed in average±SEM. One has analyzed 8 vessels of the dioclein group, 7 vessels of the 8-MM-IBMX group and 9 vessels of the vinpocetine group.
# FIG. 2 illustrates the effect of the flavonoids of the present invention on the human saphenous vein. […] FIG. 3 illustrates the effect of dioclein on the human saphenous vein without functional endothelium, in the absence and in the presence of an inhibitor selective of protein Kinase A, which is the intracellular receptor of AMPc.
# PDE1 [2] = settings: cited from earlier work
# PDE1 of bovine tissue = settings: cited from earlier work
# PDE7 = PDE7 (Homo sapiens, UniProt Q9NP56); settings: at the same concentrations (higher than 30 μM); cited from earlier work
# PDE7, sequence (Q9NP56 whole entry): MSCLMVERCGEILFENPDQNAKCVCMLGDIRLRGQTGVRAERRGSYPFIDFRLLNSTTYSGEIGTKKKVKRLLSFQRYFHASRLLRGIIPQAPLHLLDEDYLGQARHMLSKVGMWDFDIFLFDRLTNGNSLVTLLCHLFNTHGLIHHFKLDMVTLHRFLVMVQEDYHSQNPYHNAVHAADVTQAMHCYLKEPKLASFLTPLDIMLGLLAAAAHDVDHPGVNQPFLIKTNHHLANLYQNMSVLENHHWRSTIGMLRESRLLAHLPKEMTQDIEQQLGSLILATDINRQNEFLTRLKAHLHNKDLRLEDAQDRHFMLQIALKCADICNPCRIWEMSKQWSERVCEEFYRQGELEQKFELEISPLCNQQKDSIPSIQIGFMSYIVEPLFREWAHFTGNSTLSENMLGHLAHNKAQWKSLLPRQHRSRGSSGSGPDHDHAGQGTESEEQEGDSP
# [3] = target: potassium channels of the type sensitive to high-conductance calcium (Homo sapiens, UniProt Q12791); settings: cited from earlier work
# potassium channels of the type sensitive to high-conductance calcium, sequence (Q12791 whole entry): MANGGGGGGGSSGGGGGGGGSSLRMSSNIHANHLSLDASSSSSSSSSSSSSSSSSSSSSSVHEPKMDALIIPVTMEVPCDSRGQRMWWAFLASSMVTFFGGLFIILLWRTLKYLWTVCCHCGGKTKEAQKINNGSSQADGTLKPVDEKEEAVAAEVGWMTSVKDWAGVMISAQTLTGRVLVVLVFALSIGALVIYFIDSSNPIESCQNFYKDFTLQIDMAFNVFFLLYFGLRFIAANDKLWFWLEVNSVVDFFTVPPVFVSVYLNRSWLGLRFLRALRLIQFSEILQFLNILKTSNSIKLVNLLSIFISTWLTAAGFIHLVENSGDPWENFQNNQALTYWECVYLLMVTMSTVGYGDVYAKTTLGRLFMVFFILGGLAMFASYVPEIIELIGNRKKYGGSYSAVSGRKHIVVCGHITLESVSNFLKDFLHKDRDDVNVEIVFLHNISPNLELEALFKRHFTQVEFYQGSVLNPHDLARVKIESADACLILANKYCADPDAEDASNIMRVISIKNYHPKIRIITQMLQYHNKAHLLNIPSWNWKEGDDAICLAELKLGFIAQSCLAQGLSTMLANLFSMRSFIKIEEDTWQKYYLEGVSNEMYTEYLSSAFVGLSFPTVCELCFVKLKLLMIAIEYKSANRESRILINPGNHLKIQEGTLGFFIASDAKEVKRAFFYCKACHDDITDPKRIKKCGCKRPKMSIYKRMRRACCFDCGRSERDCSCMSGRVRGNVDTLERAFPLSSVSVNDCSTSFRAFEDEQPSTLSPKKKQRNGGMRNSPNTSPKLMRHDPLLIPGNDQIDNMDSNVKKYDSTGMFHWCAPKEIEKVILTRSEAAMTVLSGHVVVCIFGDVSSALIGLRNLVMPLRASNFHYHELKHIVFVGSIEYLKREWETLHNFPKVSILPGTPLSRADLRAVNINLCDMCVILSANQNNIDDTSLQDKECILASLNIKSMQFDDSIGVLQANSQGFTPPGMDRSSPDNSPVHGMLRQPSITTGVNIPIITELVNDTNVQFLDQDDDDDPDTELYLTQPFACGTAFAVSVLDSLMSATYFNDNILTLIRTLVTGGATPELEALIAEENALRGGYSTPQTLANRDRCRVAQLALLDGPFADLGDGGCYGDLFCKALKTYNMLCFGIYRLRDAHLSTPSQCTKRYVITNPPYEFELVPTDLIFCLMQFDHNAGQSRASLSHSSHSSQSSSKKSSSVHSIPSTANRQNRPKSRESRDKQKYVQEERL
# Solubility = type: physicochemical
# [4] = tested on: arterial pressure of mice; test: Hypotensor effect on arterial pressure of mice; type: in vivo; settings: dissolved with DMSO
# Protocol: FIG. 7 is a representative example of the effect of dioclein (2.5 mg/kg) and of the inclusion product of dioclein in cyclodextrin (inclusion: 2.5 mg/kg), applied by intraperitoneal route, on the arterial pressure of mice. In the highlight we can see the average±SEM of the maximum effect achieved on 6 different mice. In these experiments dioclein and the inclusion product of dioclein in the cyclodextrin were dissolved with the aid of DMSO.
# FIG. 8 is a representative example of the effect of dioclein (10 mg/kg) and of the inclusion product of dioclein in cyclodextrin (inclusion: 10 mg/kg), applied by oral route, on the arterial pressure of mice. In the highlight one can see the average±SEM of maximum effect achieve in 3 different mice. In this experiments dioclein and the inclusion product of dioclein in cyclodextrin were dissolved with the aid of DMSO.
# FIG. 9 is a representative example of the effect of the inclusion product of dioclein in cyclodextrin (inclusion; 10 mg/kg), solubilized in water, applied by oral route, on the arterial pressure of mice.
# FIG. 7 illustrates the effect of dioclein and of dioclein included in cyclodextrin, dissolved with the aid of DMSO on the arterial pressure of mice. […] FIG. 8 illustrates the effect of dioclein and of dioclein included in cyclodextrin dissolved with the aid of DMSO on the arterial pressure of mice when applied by oral route (gavage). […]
# PDE5 [5] = target: T1, PDE5 (Bos taurus, UniProt Q28156); test: PDE5 inhibition, enzyme isolated from smooth muscle of ox aorta; type: biochemical
# T1 construct: isolated from the smooth muscle of ox aorta; from tissue; host or cells: smooth muscle of ox aorta
# PDE1 [6] = tested on: T2, PDE1; test: PDE1 inhibition, enzyme isolated from smooth muscle of ox aorta; type: biochemical
# T2 construct: IC50 PDE1 − calmodulin; other: without calmodulin; Ki PDE1 − calmodulin; other: with calmodulin; Ki PDE1 + calmodulin; other: versus literature value of 8-MM-IBMX; times more pot
# PDE1 [7] = test: as above; type: biochemical; settings: PDE1 versus PDE2-PDE5
# PDE2 = target: T3, PDE2 (Homo sapiens, UniProt O00408); test: PDE2 inhibition, enzyme isolated from human platelets; type: biochemical
# T3 construct: on the PDE2 isolated from human platelets; from tissue; host or cells: human platelets
# T3 sequence (O00408 whole entry): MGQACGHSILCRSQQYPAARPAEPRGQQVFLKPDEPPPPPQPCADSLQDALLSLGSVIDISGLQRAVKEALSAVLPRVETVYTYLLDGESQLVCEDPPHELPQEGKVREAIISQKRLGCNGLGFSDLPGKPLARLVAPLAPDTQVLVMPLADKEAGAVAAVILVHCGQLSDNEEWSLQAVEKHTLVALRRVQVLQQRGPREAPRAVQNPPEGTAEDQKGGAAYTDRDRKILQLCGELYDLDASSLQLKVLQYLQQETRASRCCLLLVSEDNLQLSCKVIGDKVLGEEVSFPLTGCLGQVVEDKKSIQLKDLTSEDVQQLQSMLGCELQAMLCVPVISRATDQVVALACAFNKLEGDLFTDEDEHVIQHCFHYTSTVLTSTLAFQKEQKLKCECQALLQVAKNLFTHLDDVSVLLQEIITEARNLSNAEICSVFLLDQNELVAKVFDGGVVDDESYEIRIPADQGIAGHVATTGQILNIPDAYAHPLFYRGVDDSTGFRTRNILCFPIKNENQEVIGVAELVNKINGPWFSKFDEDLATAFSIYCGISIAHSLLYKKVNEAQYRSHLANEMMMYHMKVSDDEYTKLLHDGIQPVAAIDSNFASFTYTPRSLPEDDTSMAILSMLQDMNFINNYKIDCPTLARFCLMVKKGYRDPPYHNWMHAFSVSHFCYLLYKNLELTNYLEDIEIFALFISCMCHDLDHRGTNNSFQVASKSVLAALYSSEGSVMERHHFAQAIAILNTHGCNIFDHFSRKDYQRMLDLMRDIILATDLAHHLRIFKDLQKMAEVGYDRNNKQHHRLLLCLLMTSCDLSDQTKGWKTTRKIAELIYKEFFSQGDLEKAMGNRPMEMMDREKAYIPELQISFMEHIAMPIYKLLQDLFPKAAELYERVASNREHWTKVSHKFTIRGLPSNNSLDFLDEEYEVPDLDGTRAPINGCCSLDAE
# PDE4 = PDE4 inhibition, enzyme isolated from smooth muscle of ox aorta; type: biochemical
# PDE3 = target: T4, PDE3 (Bos taurus, UniProt A0A3Q1M1E8); test: PDE3 inhibition, enzyme isolated from smooth muscle of ox aorta; type: biochemical
# T4 sequence (A0A3Q1M1E8 1-1126): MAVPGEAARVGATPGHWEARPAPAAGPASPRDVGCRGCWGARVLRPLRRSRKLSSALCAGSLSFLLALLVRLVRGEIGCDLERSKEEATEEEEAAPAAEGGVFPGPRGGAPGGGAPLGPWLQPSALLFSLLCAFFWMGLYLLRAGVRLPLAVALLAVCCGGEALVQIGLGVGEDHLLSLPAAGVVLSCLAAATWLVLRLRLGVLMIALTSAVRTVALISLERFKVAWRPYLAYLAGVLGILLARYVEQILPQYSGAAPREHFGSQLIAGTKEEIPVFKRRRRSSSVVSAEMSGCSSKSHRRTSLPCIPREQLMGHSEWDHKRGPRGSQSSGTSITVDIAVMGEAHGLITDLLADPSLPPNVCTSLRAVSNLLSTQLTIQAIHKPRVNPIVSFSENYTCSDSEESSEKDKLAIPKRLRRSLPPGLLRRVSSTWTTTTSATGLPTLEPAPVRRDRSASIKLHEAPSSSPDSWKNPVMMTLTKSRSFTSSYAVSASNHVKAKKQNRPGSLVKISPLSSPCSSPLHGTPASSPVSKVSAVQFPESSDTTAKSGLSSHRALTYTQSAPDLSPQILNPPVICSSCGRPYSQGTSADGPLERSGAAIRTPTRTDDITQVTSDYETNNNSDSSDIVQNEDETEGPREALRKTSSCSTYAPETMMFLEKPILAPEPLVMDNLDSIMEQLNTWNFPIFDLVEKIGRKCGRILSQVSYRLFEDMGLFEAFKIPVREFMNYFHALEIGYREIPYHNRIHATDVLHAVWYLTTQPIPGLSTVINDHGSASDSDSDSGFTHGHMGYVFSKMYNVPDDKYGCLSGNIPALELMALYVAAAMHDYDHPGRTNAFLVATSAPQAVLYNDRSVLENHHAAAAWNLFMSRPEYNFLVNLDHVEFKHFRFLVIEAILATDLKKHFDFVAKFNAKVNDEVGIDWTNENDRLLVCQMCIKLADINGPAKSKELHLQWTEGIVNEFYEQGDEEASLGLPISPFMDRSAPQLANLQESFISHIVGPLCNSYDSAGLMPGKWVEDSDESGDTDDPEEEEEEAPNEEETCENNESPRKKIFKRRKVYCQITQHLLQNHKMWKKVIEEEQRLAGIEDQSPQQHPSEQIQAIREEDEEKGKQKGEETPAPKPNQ
# [8] = without functional endothelium, read-out: Cl50 of vasodilating effect, absence of functional endothelium
# [9] = without calmodulin, read-out: IC50 PDE1 − calmodulin
# [10] = activated, +GMPc, read-out: IC50 Activated PDE2 (+GMPc)
# [11] = basal, read-out: IC50 Basal PDE2
smiles,measurement,setting,value
"COCc1nc2c([nH]1)c(=O)n(C)c(=O)n2CC(C)C [8-MM-IBMX, 8-methoxymethyl-IBMX]",IC50,PDE5 [1],10 µM
same,IC50,human saphenous vein; [8],30.9 ± 16 µM
same,IC50,PDE1 [2],8 µM
CCOC(=O)C1=C[C@]2(CC)CCCN3CCc4c(n1c1ccccc41)[C@@H]32 [Vinpocetine],concentrations showing inhibitory effect on PDE1,PDE1 of bovine tissue,higher than 30 μM
same,PDE7 inhibition,PDE7,inhibits PDE7
same,maximum vasodilating effect,human saphenous vein; without functional endothelium,30%
same,direct activation of potassium channels,[3],capable of directly activating potassium channels
"COc1cc2c(c(O)c1OC)C(=O)CC(c1cc(O)ccc1O)O2 (stereo not shown) [Dioclein, 5, 2′,5′-trihydroxy-6,7-dimethoxyflavanone]",solubility in DMSO and methanol,"Solubility; DMSO, methanol",soluble in DMSO and methanol
same,solubility in water,Solubility; water,insolubility in water; also recorded: low solubility in water; also recorded: very low solubility in water
same,"effect on arterial pressure, intraperitoneal route",[4]; 2.5 mg/kg i.p.,reduced the arterial pressure of mice
same,"effect on arterial pressure, oral route (gavage), DMSO",[4]; 10 mg/kg oral,not active via oral route
same,IC50,"human saphenous vein; Homo sapiens, with functional endothelium, read-out: Cl50 of vasodilating effect, presence of functional endothelium",3 ± 0.2 µM
same,IC50,"human saphenous vein; Homo sapiens, without functional endothelium, read-out: Cl50 of vasodilating effect, absence of functional endothelium",11 ± 0.4 µM
same,vasodilating effect in the presence of H-89 (protein kinase A inhibitor),"human saphenous vein; without functional endothelium, H-89 1 μM",displaced to the right
same,IC50,human saphenous vein; [8],11.1 ± 2.7 µM
same,IC50,PDE5 [5],23 ± 5.5 µM
same,IC50,"PDE1 [6]; calmodulin state not stated in text, listed as dioclein, read-out: IC50 of inhibitory effect on PDE1 (running text)",1.44 ± 0.35 µM
same,IC50,"PDE1 [6]; calmodulin state not stated in text, read-out: IC50 of inhibitory effect on PDE1 (running text)",1.4 µM
same,times more potent than 8-MM-IBMX (PDE1),PDE1 [6]; versus literature value of 8-MM-IBMX,8 times
same,times more potent than vinpocetine (PDE1),PDE1 [6]; versus literature value of vinpocetine,about 30 times
same,Ki,PDE1 [6]; with calmodulin,0.59 µM
same,Ki,PDE1 [6]; without calmodulin,0.62 µM
same,IC50,PDE1 [6]; [9],2.47 ± 0.26 µM
same,"selectivity: PDE1 inhibited at concentrations times smaller than for PDE2, PDE3, PDE4 and PDE5",PDE1 [7],20 to 100 times and 20-100 times
same,IC50,PDE2; [10],38.2 ± 8.92 µM
same,IC50,PDE2; [11],100 ± 0.5 µM
same,IC50,PDE4,16.8 ± 1.42 µM
COc1c(O)c(CC=C(C)C)c2c(c1O)C(=O)[C@H](O)[C@@H](c1ccccc1O)O2 [Floranol],IC50,PDE3,47.1 ± 5.25 µM
same,IC50,PDE5 [5],7.14 µM
same,IC50,"PDE1 [6]; with calmodulin, read-out: IC50 PDE1 + calmodulin",3.06 ± 0.14 µM
same,IC50,PDE1 [6]; [9],2.75 ± 0.2 µM
same,IC50,PDE2; [10],65.3 ± 6.87 µM
same,IC50,PDE2; [11],26.8 ± 4.62 µM
same,IC50,PDE4,11 ± 2.31 µM
